Here are results for two molecules from ChEMBL document CHEMBL1158196, “Isolation and synthesis of novel farnesyl protein transferase inhibitors, valinoctins A and B, from Streptomyces strain MJ858-NF3” (J Nat Prod, 1996).

Structures are written as SMILES. Values after ≈ are worked out from the molar mass of the structure shown.

The assay is described as follows: Inhibition of bovine brain FPTase after 20 mins. The arrangement: species or system Bos taurus.

Broadly, the IC50 is the concentration needed to halve the response being measured. A high value points to a need for much substance. In turn, `CCC(C)CC[C@@H](N)[C@H](O)C(=O)N[C@H](C(=O)O)C(C)C` (some centres not stated) [VALINOCTIN B] registered an IC50 of 1 µg/mL (≈ 3.47 µM).

For `CCCCC[C@@H](N)[C@H](O)C(=O)N[C@H](C(=O)O)C(C)C` [VALINOCTIN A], the IC50 worked out at 0.9 µg/mL (≈ 3.28 µM).
